The values that follow come from patent US20210267239A1, “Process for Sanitizing and Preserving Foodstuffs and Beverages” (LANXESS Deutschland GmbH, priority 2018, published 2021).

Holding throughout (format): cell-based
For assay [1], the system named is mixture of Saccharomyces cerevisiae, Zygosaccharomyces bailii, Penicillium carneum and Trichoderma virens. The experiment in a line: MIC determination in contaminated iced tea, non-carbonated. The conditions noted are these: 168 h, mixed test microbes, 250 cfu/ml each, after one week, read-out: MIC (mg/l) after one week. The protocol: (§1) After one week, a proportion of the medium was tested for the presence of microorganisms and these tests were used to determine the MIC (minimum inhibitory concentration). Individual test substances: natamycin, mycosamine Test microbe: mixture of Saccharomyces cerevisiae, Zygosaccharomyces bailii, Penicillium carneum and Trichoderma virens Substrate: iced tea, non-carbonated Microbial seeding per ml of substrate: 250 cfu/ml each of the test microbes listed above Synergism was ascertained according to the method described in Kull, F. C. et al.; Mixtures of quaternary ammonium compounds and long-chain fatty acids as antifungal agents. Applied Microbiology, 9, 538-541, 1961. The following relationships apply: QA/Qa+QB/Qb=SI Qa=concentration of substance A which is the MIC Qb=concentration of substance B which is the MIC QA=concentration of substance A in the concentration of A/B at which microbial growth is suppressed QB=concentration of substance B in the concentration of A/B at which microbial growth is suppressed SI=synergistic index […]

A further assay has as its system Candida krusei. The assay is described as follows: MIC determination in RPMI-1640 growth medium (CLSI M27-A3). The conditions noted are these: Pichia kudriavzevii, 168 h, growth medium RPMI-1640, seeding 1000 cfu/ml, after one week, read-out: MIC (mg/l) after one week. The procedure: as §1, with “Candida krusei” for “mixture of Saccharomyces cerevisiae, Zygosaccharomyces bailii, Penicillium carneum and Trichoderma virens”, “growth medium” for “iced tea, non-carbonated”, “1000” for “250”, “cfu/ml” for “cfu/ml each of the test microbes listed above”

The subject of a further assay is Candida albicans. The assay is described as above. As to conditions: 168 h, growth medium RPMI-1640, seeding 1000 cfu/ml, after one week, read-out: MIC (mg/l) after one week. The protocol: (§2) After one week, a proportion of the growth medium was tested for the presence of microorganisms and these tests were used to determine the MIC (minimum inhibitory concentration). Individual test substances: natamycin, mycosamine Test microbe: Candida albicans Substrate: growth medium Microbial seeding per ml of substrate: 1000 cfu/ml Synergism was ascertained according to the method described in Kull, F. C. et al.; Mixtures of quaternary ammonium compounds and long-chain fatty acids as antifungal agents. Applied Microbiology, 9, 538-541, 1961. The following relationships apply: QA/Qa+QB/Qb=SI Qa=concentration of substance A which is the MIC Qb=concentration of substance B which is the MIC QA=concentration of substance A in the concentration of A/B at which microbial growth is suppressed QB=concentration of substance B in the concentration of A/B at which microbial growth is suppressed SI=synergistic index […]

The test system of another assay is Candida glabrata. Described as above. The conditions noted are these: Nakaseomyces glabratus, 168 h, growth medium RPMI-1640, seeding 1000 cfu/ml, after one week, read-out: MIC (mg/l) after one week. The protocol:
as §2, with “the” for “the growth”, “glabrata” for “albicans”

For `C[C@@H](O)[C@@H](O)[C@H](N)[C@H](O)C=O` [Mycosamine, 3-amino-3,6-dideoxymannose], the MIC in assay [1] worked out at 0.75 mg/L; with Candida krusei, 2 mg/L; in the assay with Candida albicans, 32 mg/L; with Candida glabrata, 0.5 mg/L.
For `C[C@@H]1C/C=C/C=C/C=C/C=C/[C@H](O[C@@H]2O[C@H](C)[C@@H](O)[C@H](N)[C@@H]2O)C[C@@H]2O[C@](O)(C[C@@H](O)C[C@H]3O[C@@H]3/C=C/C(=O)O1)C[C@H](O)[C@H]2C(=O)O` [Natamycin, (8E,14E,16E,18E,20E)-(1R,3S,5R,7R,12R,22R,24S,25R,26S)-22-(3-amino-3,6-dideoxy-25-D-mannopyranosyloxy)-1,3,26-trihydroxy-12-methyl-10-oxo-6,11,28-trioxatricyclo[22.3.1.05,7]octacosa-8,14,16,18,20-pentaene-25-carboxylic acid], in that order: 4 mg/L, 2 mg/L, 1 mg/L and 1 mg/L.
